# Data reported in patent US10285989B2, “Pyrimidinone amide compounds as PDE2 inhibitors” (Merck Sharp & Dohme Corp., priority 2015, dated 2019).
# Where two headings read alike, the source gives them in different places.
# Assays:
# [1] = molecular target: P-glycoprotein (P-gp, rat Mdr1a) (Rattus norvegicus, UniProt Q6PSM0); test: P-gp transport, experimental BA/AB ratio, rat LLC-Mdr1a; assay type: in vitro ADME; details: LLC-PK1; rat LLC-Mdrla; 1 μM substrate concentration
# From the text: (§1) See Doan et al. “Passive permeability and P-glycoprotein-mediated efflux differentiate central nervous system (CNS) and non-CNS marketed drugs”, J. Pharm. Exper. […] Desirable human BA/AB ratio is less than 2.0. […] See, for example, Desai, et al. Integration of in Silico and in Vitro Tools for Scaffold Optimization during Drug Discovery: Predicting P-glycoprotein Efflux” Mol. Pharmac.
# human PDE2A1 = human PDE2A1 (Homo sapiens (Human), UniProt O00408); test: PDE2 IMAP FP inhibition assay, human PDE2A1 (selectivity panel format); assay type: biochemical
# How it was run: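 Enzyme dosed to give about 20% substrate turnover acts for 60 min at room temperature on 50 nM FAM-cAMP plus 1000 nM cGMP (Tris pH 7.2, MgCl2, DTT, Tween-20 buffer). IMAP binding solution then stops the reaction; after 1 h, polarization is measured from parallel and perpendicular fluorescence.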
# P-glycoprotein (P-gp) = P-glycoprotein (P-gp) (Homo sapiens (Human), UniProt P08183); test: P-gp transport, experimental BA/AB ratio, human; assay type: in vitro ADME; details: LLC-PK1, 1 μM substrate concentration
# From the text: as §1
# Rhesus PDE2A3 = Rhesus PDE2A3 (Macaca mulatta, UniProt B3VTJ2); test: PDE2 fluorescence polarization (IMAP FP) inhibition assay, rhesus PDE2A3; assay type: biochemical, rhesus macaque
# [2] = Lab B, read-out: Human PDE2 Ki (nM) - Lab B
# [3] = Lab B, read-out: Rhesus PDE2 Ki (nM) - Lab B
# [4] = Lab A, read-out: Human PDE2 Ki (nM) - Lab A
# [5] = Lab A, read-out: Rhesus PDE2 Ki (nM) - Lab A
# P-glycoprotein (P-gp), sequence (P08183 whole entry): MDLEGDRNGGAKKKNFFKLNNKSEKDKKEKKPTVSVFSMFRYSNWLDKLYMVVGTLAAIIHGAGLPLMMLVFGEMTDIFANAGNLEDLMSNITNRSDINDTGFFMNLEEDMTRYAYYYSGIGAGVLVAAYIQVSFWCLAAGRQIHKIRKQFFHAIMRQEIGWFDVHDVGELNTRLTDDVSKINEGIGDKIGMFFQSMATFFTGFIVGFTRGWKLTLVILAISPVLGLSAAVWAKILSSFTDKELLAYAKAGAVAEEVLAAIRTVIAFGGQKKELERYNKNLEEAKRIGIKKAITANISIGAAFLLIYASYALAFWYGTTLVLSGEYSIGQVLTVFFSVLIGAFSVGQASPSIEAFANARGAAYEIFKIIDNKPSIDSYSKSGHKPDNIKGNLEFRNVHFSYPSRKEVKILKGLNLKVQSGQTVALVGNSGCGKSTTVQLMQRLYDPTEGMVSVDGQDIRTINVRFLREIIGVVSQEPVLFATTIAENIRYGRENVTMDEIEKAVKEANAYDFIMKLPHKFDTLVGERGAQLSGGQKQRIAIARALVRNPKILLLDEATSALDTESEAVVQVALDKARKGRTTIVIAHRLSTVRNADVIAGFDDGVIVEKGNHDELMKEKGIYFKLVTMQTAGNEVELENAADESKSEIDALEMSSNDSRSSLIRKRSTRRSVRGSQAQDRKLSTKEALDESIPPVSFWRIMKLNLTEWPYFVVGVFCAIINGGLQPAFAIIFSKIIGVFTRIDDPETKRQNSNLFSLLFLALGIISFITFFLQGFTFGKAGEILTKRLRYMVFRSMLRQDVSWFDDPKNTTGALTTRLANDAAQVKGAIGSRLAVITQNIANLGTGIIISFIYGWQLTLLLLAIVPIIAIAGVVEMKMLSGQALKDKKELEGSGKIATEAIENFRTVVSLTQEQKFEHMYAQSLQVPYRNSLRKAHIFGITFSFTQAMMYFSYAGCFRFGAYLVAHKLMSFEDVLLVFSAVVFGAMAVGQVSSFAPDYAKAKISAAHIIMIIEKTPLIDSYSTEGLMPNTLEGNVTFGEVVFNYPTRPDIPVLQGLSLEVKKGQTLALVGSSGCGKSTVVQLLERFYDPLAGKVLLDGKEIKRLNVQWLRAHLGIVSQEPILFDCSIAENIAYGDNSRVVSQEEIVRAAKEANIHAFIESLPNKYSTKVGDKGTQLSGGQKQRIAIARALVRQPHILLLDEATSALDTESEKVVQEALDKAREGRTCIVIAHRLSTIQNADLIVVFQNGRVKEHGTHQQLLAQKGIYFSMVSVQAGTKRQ
# Rhesus PDE2A3, sequence (B3VTJ2 1-941): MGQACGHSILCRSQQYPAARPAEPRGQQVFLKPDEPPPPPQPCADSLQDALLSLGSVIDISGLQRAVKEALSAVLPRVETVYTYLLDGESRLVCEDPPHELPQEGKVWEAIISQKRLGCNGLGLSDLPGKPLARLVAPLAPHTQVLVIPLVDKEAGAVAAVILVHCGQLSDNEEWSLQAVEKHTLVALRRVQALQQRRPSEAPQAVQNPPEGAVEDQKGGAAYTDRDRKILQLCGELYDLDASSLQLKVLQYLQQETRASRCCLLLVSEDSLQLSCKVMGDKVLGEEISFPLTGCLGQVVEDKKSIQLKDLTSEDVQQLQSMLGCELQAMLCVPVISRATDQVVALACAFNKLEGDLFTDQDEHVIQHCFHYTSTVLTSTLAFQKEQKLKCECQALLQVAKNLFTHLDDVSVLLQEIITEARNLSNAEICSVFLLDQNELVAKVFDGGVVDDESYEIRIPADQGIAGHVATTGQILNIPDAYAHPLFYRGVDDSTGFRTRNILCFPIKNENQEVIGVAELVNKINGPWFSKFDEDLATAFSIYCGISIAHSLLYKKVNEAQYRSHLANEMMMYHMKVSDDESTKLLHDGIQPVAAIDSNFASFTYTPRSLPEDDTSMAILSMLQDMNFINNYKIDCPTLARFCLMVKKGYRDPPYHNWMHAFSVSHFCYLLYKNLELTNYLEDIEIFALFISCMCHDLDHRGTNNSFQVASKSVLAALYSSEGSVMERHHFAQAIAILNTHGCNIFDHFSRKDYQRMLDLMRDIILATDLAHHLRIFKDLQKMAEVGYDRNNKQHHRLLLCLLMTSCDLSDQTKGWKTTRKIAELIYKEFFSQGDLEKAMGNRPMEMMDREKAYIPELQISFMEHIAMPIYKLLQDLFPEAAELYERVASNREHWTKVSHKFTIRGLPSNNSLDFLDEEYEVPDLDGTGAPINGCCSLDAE
# P-glycoprotein (P-gp, rat Mdr1a), sequence (Q6PSM0 1-1272): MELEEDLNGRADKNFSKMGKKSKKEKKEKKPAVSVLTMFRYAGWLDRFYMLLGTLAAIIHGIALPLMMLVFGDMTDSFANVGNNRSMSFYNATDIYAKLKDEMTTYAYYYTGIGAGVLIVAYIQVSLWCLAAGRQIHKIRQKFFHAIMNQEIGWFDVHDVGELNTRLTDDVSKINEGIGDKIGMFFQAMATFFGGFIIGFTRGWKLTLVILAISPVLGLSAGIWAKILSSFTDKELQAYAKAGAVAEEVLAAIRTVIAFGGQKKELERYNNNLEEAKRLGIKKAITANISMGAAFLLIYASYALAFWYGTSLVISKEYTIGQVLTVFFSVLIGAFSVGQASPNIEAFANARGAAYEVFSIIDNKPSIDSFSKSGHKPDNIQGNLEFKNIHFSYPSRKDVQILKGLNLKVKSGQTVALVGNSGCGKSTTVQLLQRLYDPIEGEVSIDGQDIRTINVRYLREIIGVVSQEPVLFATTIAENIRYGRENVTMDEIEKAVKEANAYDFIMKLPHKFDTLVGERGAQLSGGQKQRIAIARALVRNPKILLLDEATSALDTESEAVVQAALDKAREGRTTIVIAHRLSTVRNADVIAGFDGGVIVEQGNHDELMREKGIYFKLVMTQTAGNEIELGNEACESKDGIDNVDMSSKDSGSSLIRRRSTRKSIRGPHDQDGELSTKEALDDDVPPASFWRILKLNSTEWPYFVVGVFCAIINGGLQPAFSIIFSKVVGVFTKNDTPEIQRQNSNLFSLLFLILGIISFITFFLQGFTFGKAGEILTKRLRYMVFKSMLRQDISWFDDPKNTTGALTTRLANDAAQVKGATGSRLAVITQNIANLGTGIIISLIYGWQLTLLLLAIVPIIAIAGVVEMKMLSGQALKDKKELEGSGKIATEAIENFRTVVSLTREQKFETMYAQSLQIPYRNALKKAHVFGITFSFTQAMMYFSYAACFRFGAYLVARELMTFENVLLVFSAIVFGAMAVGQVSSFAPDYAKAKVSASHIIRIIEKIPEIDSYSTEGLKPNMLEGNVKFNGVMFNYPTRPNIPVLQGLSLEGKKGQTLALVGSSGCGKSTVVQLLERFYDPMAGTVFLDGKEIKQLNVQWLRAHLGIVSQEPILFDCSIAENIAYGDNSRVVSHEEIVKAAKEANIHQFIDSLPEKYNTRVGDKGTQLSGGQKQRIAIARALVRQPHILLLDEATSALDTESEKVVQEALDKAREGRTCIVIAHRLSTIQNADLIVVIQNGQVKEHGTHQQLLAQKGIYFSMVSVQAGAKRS
# human PDE2A1, sequence (O00408 other isoform, or with tags, fused parts or gaps): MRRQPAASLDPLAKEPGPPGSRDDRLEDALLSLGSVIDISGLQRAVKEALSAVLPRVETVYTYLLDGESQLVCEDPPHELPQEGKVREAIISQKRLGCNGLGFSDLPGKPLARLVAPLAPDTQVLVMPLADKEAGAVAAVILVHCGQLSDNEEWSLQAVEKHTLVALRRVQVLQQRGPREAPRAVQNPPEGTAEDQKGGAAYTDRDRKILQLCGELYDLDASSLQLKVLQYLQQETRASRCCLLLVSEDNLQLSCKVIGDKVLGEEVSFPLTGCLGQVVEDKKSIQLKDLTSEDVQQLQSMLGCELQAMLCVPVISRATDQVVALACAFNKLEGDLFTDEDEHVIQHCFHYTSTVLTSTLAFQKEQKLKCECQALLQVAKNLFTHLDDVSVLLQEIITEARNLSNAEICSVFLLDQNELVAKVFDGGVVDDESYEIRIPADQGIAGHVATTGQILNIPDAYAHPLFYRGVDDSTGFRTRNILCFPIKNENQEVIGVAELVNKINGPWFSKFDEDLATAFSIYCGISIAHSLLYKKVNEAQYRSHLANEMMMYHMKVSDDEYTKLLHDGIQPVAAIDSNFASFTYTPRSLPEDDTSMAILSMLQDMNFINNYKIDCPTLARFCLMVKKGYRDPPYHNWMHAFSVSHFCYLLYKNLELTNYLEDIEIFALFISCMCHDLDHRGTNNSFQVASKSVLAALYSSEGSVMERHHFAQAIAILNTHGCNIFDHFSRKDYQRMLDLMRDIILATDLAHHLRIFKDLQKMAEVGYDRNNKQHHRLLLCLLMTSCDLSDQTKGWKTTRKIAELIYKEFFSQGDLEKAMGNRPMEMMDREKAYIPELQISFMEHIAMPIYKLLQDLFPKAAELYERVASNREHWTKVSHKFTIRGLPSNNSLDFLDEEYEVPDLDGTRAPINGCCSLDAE
SMILES,efflux ratio at 1 μM [1],Ki (human PDE2A1; [2]),efflux ratio at 1 μM (P-glycoprotein (P-gp)),Ki (Rhesus PDE2A3; [3]),Ki (human PDE2A1; [4]),Ki (Rhesus PDE2A3; [5])
"CC(C)[C@@H](NC(=O)c1cc(=O)[nH]c(N(C)C)n1)c1ccc(OC(F)F)c(F)c1 [Example 48, N-{(1R)-1-[4-(difluoromethoxy)-3-fluorophenyl]-2-methylpropyl}-2-(dimethylamino)-6-oxo-1,6-dihydropyrimidine-4-carboxamide]",6.4,1.7 nM,1.5,1.9 nM,,
"CN(C)c1nc(C(=O)N[C@@H](c2ccc(OC(F)F)c(F)c2)C(C)(C)C)cc(=O)[nH]1 [Example 54, N-{(1R)-1-[4-(difluoromethoxy)-3-fluorophenyl]-2,2-dimethylpropyl}-2-(dimethylamino)-6-oxo-1,6-dihydropyrimidine-4-carboxamide]",4.8,0.38 nM,1.4,0.32 nM,,
"CN(C)c1nc(C(=O)N[C@@H](c2ccc(OC(F)F)c(F)c2)C2(C)CC2)cc(=O)[nH]1 [Example 55, N-[(R)-[4-(difluoromethoxy)-3-fluorophenyl](1-methylcyclopropyl)methyl]-2-(dimethylamino)-6-oxo-1,6-dihydropyrimidine-4-carboxamide]",3.4,0.98 nM,0.6,1.4 nM,,
"CN(C)c1nc(C(=O)N[C@@H](c2ccc(C3CC3)c(F)c2)C2CC2)cc(=O)[nH]1 [Example 56, N-[(R)-cyclopropyl(4-cyclopropyl-3-fluorophenyl)methyl]-2-(dimethylamino)-6-oxo-1,6-dihydropyrimidine-4-carboxamide]",1.7,0.51 nM,0.3,0.71 nM,,
"CN(C)c1nc(C(=O)N[C@@H](c2ccc(S(F)(F)(F)(F)F)cc2)C2(C)CC2)cc(=O)[nH]1 [Example 57, 2-(dimethylamino)-N-{(R)-(1-methylcyclopropyl)[4-(pentafluoro-λ^6-sulfanyl)phenyl]methyl}-6-oxo-1,6-dihydropyrimidine-4-carboxamide]",0.7,0.31 nM,1.7,0.28 nM,,
"CN(C)c1nc(C(=O)N[C@@H](c2ccc(C3CC3)c(F)c2)C(C)(C)C)cc(=O)[nH]1 [Example 58, N-[(1R)-1-(4-cyclopropyl-3-fluorophenyl)-2,2-dimethylpropyl]-2-(dimethylamino)-6-oxo-1,6-dihydropyrimidine-4-carboxamide]",4.7,0.03 nM,1.3,0.1 nM,,
"CN(C)c1nc(C(=O)N[C@@H](c2ccc(C(F)F)cc2)C(C)(C)C)cc(=O)[nH]1 [Example 60, N-{(1R)-1-[4-(difluoromethyl)phenyl]-2,2-dimethylpropyl}-2-(dimethylamino)-6-oxo-1,6-dihydropyrimidine-4-carboxamide]",4.3,0.29 nM,0.8,0.42 nM,,
"C[C@@H](NC(=O)c1cc(=O)[nH]c(N(C)C)n1)c1ccc(OC(F)(F)F)cc1 [Example 87, 2-(dimethylamino)-6-oxo-N-{(1R)-1-[4-(trifluoromethoxy)phenyl]ethyl}-1,6-dihydropyrimidine-4-carboxamide]",2.2,,0.5,,0.74 nM,1.1 nM
"C[C@@H](NC(=O)c1cc(=O)[nH]c(N(C)C)n1)c1ccc(OC(F)(F)F)c(F)c1 [Example 90, 2-(dimethylamino)-N-{(1R)-1-[3-fluoro-4-(trifluoromethoxy)phenyl]ethyl}-6-oxo-1,6-dihydropyrimidine-4-carboxamide]",2.7,,0.5,,0.28 nM,0.69 nM
"CC(C)[C@@H](NC(=O)c1cc(=O)[nH]c(N(C)C)n1)c1ccc(OC(F)(F)F)cc1 [Example 91, 2-(dimethylamino)-N-{(1R)-2-methyl-1-[4-(trifluoromethoxy)phenyl]propyl}-6-oxo-1,6-dihydropyrimidine-4-carboxamide]",5.1,,0.6,,0.19 nM,0.64 nM

# Continued, values first:
efflux ratio at 1 μM [1],Ki (human PDE2A1; [2]),efflux ratio at 1 μM (P-glycoprotein (P-gp)),Ki (Rhesus PDE2A3; [3]),Ki (human PDE2A1; [4]),Ki (Rhesus PDE2A3; [5]),SMILES
12.3,0.75 nM,1.6,0.82 nM,,,"CN(C)c1nc(C(=O)N[C@@H](c2ccc(C(F)F)cc2)C2(C)CC2)cc(=O)[nH]1 [Example 61, N-[(R)-[4-(difluoromethyl)phenyl](1-methylcyclopropyl)methyl]-2-(dimethylamino)-6-oxo-1,6-dihydropyrimidine-4-carboxamide]"
5.2,0.52 nM,1.2,0.55 nM,,,"CN(C)c1nc(C(=O)N[C@@H](c2ccc(C(F)F)c(F)c2)C(C)(C)C)cc(=O)[nH]1 [Example 62, N-{(1R)-1-[4-(difluoromethyl)-3-fluorophenyl]-2,2-dimethylpropyl}-2-(dimethylamino)-6-oxo-1,6-dihydropyrimidine-4-carboxamide]"
4.8,0.21 nM,0.3,0.23 nM,,,"CN(C)c1nc(C(=O)N[C@@H](c2ccc(C3CC3)cc2)C2(C)CC2)cc(=O)[nH]1 [Example 71, N-[(R)-(4-cyclopropylphenyl)(1-methylcyclopropyl)methyl]-2-(dimethylamino)-6-oxo-1,6-dihydropyrimidine-4-carboxamide]"
6.9,0.17 nM,1.2,0.26 nM,,,"CN(C)c1nc(C(=O)N[C@@H](c2ccc(C(F)F)cc2F)C(C)(C)C)cc(=O)[nH]1 [Example 73, N-{(1R)-1-[4-(difluoromethyl)-2-fluorophenyl]-2,2-dimethylpropyl}-2-(dimethylamino)-6-oxo-1,6-dihydropyrimidine-4-carboxamide]"
4.5,0.12 nM,1.6,0.11 nM,,,"CN(C)c1nc(C(=O)N[C@@H](c2ccc(C(C)(F)F)cc2)C(C)(C)C)cc(=O)[nH]1 [Example 76, N-{(1R)-1-[4-(1,1-difluoroethyl)phenyl]-2,2-dimethylpropyl}-2-(dimethylamino)-6-oxo-1,6-dihydropyrimidine-4-carboxamide]"
7.3,0.19 nM,1.1,0.21 nM,,,"CC(C)[C@@H](NC(=O)c1cc(=O)[nH]c(N(C)C)n1)c1ccc(C(C)(F)F)c(F)c1 [Example 77, N-{(1R)-1-[4-(1,1-difluoroethyl)-3-fluorophenyl]-2-methylpropyl}-2-(dimethylamino)-6-oxo-1,6-dihydropyrimidine-4-carboxamide]"
6.2,7.7 nM,0.9,6.4 nM,,,"COc1cc(C(F)(F)F)ccc1C(C)(C)NC(=O)c1cc(=O)[nH]c(N(C)C)n1 [Example 79, 2-(dimethylamino)-N-{1-[2-methoxy-4-(trifluoromethyl)phenyl]-1-methylethyl}-6-oxo-1,6-dihydropyrimidine-4-carboxamide]"
1.7,0.79 nM,0.4,0.65 nM,,,"CN(C)c1nc(C(=O)NC(C)(C)c2ccc(C(F)(F)F)cc2Cl)cc(=O)[nH]1 [Example 80, N-{1-[2-chloro-4-(trifluoromethyl)phenyl]-1-methylethyl}-2-(dimethylamino)-6-oxo-1,6-dihydropyrimidine-4-carboxamide]"
1.8,0.69 nM,0.3,0.51 nM,5.05 nM,0.61 nM,"CC[C@@H](NC(=O)c1cc(=O)[nH]c(N(C)C)n1)c1ccc(SC(F)(F)F)cc1 [Example 88, 2-(dimethylamino)-6-oxo-N-[(1R)-1-{4-[(trifluoromethyl)sulfanyl]phenyl}propyl]-1,6-dihydropyrimidine-4-carboxamide]"
2.9,,0.4,,0.41 nM,1.1 nM,"C[C@@H](NC(=O)c1cc(=O)[nH]c(N(C)C)n1)c1ccc(S(F)(F)(F)(F)F)cc1 [Example 89, 2-(dimethylamino)-6-oxo-N-{(1R)-1-[4-(pentafluoro-λ^6-sulfanyl)phenyl]ethyl}-1,6-dihydropyrimidine-4-carboxamide]"
1.7,,0.4,,1.8 nM,2.5 nM,"CN(C)c1nc(C(=O)NC2(c3ccc(SC(F)(F)F)cc3)CC2)cc(=O)[nH]1 [Example 92, 2-(dimethylamino)-6-oxo-N-(1-{4-[(trifluoromethyl)sulfanyl]phenyl}cyclopropyl)-1,6-dihydropyrimidine-4-carboxamide]"
1.9,,0.3,,3.8 nM,4 nM,"CN(C)c1nc(C(=O)NC(C)(C)c2ccc(C(F)(F)F)c(F)c2)cc(=O)[nH]1 [Example 93, 2-(dimethylamino)-N-{1-[3-fluoro-4-(trifluoromethyl)phenyl]-1-methylethyl}-6-oxo-1,6-dihydropyrimidine-4-carboxamide]"
